# Assays:
# hCD8^+ T cells [1] = assay: Proliferation of TCR-activated hCD8+ T cells, CFSE dilution; assay type: cell-based, human; details: 10 nM, compared to untreated TCR-activated control cells
# Experimental: Augmentation of CD8^+ T Cell Proliferation. Naïve hCD8^+ T cells were isolated from commercially available buffy coats using magnetic separation and the appropriate kit from Miltenyi Biotec. Cells were then subject to TCR activation using a cocktail of anti-CD2/anti-CD^3/anti-CD28 antibodies. Untreated control and treated cells were included in the experiment. The cells were cultured for 72 hrs in TexMACS media (Miltenyi Biotec) without IL-2 and for an additional 48 hrs in TexMACS media containing 20U human IL-2/mL. Cell division was assessed by flow cytometry using the carboxyfluorescein succimidyl ester (CFSE) dilution method.
# hCD8^+ T cells [2] = assay: hCD8+ T cell differentiation into effector T cells: IFNγ release, ELISA; assay type: cell-based, human; details: for IFNγ (% Control): 24 hrs, normalized per number of cells
# Experimental: (§1) Differentiation of T Cells. The ability of T cells to differentiate from a naïve to an effector state was assessed by measuring the levels of IFNγ or GZMB synthesis following activation of the cells using a cocktail of anti-CD2/anti-CD3/anti-CD28 antibodies. Expression of IFNγ, GZMB, and other effector cytokines was measured by determining their concentration in the conditioned media 24-72 hrs after initiation of activation or by estimating the % cells expressing these cytokines using fluorescence-activated cell sorting (FACS).
# (§2) Augmentation of hCD8^+ T Cell Differentiation into Effector T Cells. Naïve CD8+ T cells were isolated from human buffy coats using magnetic separation and the appropriate kit from Miltenyi Biotec. Cells were then activated using a cocktail of anti-CD2/anti-CD3/anti-CD28 antibodies. Differentiation of the cells into effector T cells was assessed by determining the levels of IFNγ and GZMB released into the media at 24 and 72 hrs, respectively using appropriate ELISA kits. Cytokine concentrations were normalized per number of cells present and expressed as % Untreated Control.
# hCD8^+ T cells [3] = assay: hCD8+ T cell differentiation into effector T cells: GZMB release, ELISA; assay type: cell-based, human; details: for Granzyme B (% Control): 72 hrs, normalized per number of cells
# Experimental: as §1, §2
# H3K4me3 = assay: Epigenetic modification: H3K4me3 Western immunoblotting in TCR-activated hCD8+ T cells; assay type: cell-based, human; details: 10 μM, 72 hrs
# Experimental: Epigenetic Modifications. The ability of a therapeutic agent to alter acetylation and/or methylation of histones was assessed by Western Immunoblotting. Briefly, immune and other type cells were collected after being exposed to the therapeutic agent or vehicle control for a specific period of time, typically 24-72 hrs. They were then lysed and cell lysates from control and treated cells contained equal amounts of proteins were subjected to SDS-PAGE electrophoresis. The presence of acetylated and methylated histone sites was determined by Western Immunoblotting using appropriate antibodies.
# Epigenetic Modification. TCR-activated hCD8^+ T cells were exposed to 0 or 10 μM Compound (6) for 72 hrs prior to lysing. Equal amounts of cell lysates were subjected to gel electrophoresis and Western immunoblotting against trimethylated lysine site 4 of histone 3 (H3K4me3). The experiment also included cell lysates from naïve cells. Image J was used for protein quantification. Western immunoblotting against histone 3 (H3) was also performed for normalization purposes. […] Exposure of the hCD8^+ T cells to 10 μM Compound (6) led to the depletion of trimethylated H3K4. H3K4me3 is commonly associated with activation of transcription.
# [4] = test system: CT26 mouse colorectal tumors; assay: Survival and tumor growth of CT26 tumor-bearing mice; assay type: in vivo, C57BL/6 mice
# Experimental: In Vivo Anti-Tumor Effect. The anticancer properties of the therapeutic agent were evaluated in vivo by determining the ability of the agent to suppress tumor growth and/or increase survival of tumor-bearing animals. In a typical experiment, 0.1-1×10^6 tumor cells, suspended in PBS containing 20% Matrigel, were injected subcutaneously in the right flank of each mouse. When the tumors became palpable, the animals were randomized into different groups and treatment began. In vivo tests routinely included a vehicle control group and different doses and/or routes of administration of the therapeutic agent. Tumor growth was assessed using calipers and the following formula:
# Tumor Volume=length×width×width×½
# The Kaplan-Meier analysis was used to estimate the survival probability of the tumor-bearing animals.
# C57BL/6 mice were injected subcutaneously in the right flank with 1×10^5 CT26 mouse colorectal tumor cells, suspended in PBS containing 20% Matrigel. The tumors were allowed to grow to −100 mm^3. The mice were randomized into two groups (n=6 animals/group): one group received vehicle control and the other group was treated with i.p. injections of 0.2 mg/kg Compound (6) twice a week (Tuesday-Thursday). The experiment continued for 27 days, at which point the mortality rate of control animals was 80%. […] The experiment was repeated (FIG. 6B). In FIG. 6B, treated animals received oral administrations of 3 mg/kg Compound (6) twice a day.
# [5] = 3 mg/kg oral twice a day, end of experiment
structure (smiles),measurement,setting,value
"O=C(O)/C(=C\c1ccc(F)cc1)C(Cc1ccccc1)C(=O)O (centres unmarked) [Compound (6), 2-benzyl-3-[(4-flurophenyl)methylidene]butanedioic acid]",proliferation of TCR-activated hCD8+ T cells,hCD8^+ T cells [1],increased proliferation
same,IFNγ (% Control),hCD8^+ T cells [2]; 1 nM,129 % Control
same,IFNγ (% Control),hCD8^+ T cells [2]; 10 nM,510 % Control
same,IFNγ (% Control),hCD8^+ T cells [2]; 100 nM,274 % Control
same,IFNγ (% Control),hCD8^+ T cells [2]; 10 μM,370 % Control
same,IFNγ (% Control),hCD8^+ T cells [2]; 100 μM,198 % Control
same,IFNγ (% Control),hCD8^+ T cells [2]; 500 μM,47 % Control
same,IFNγ synthesis following TCR activation,hCD8^+ T cells [2]; high (>100 μM) concentrations,decrease
same,synthesis of INFγ following TCR activation,"hCD8^+ T cells [2]; low concentrations, 0.1 nM to 100 μM",increased synthesis
same,Granzyme B (% Control),hCD8^+ T cells [3]; 0.1 nM,117 % Control
same,Granzyme B (% Control),hCD8^+ T cells [3]; 1 nM,165 % Control
same,Granzyme B (% Control),hCD8^+ T cells [3]; 10 nM,504 % Control
same,Granzyme B (% Control),hCD8^+ T cells [3]; 100 nM,276 % Control
same,Granzyme B (% Control),hCD8^+ T cells [3]; 10 μM,360 % Control
same,production of GZMB,hCD8^+ T cells [3]; low concentrations,increase production
same,trimethylated H3K4 (H3K4me3/H3),H3K4me3,depletion
same,survival (Kaplan-Meier),"[4]; 0.2 mg/kg i.p. twice a week, 27 days, vs vehicle control",survival advantage
same,animals with complete tumor regression,[4]; [5],1/6
same,mice with slower tumor growth,[4]; [5],5/6
same,survival (Kaplan-Meier),[4]; 3 mg/kg orally twice a day,increased survival

# — patent publication US20210261495A1, “COMPOSITIONS AND METHODS OF USING ITACONIC ACID DERIVATIVES” (ERGON PHARMACEUTICALS, LLC, priority 2018, published 2021)
